Measured values taken from PubChem BioAssay AID248 (DTP/NCI, 2004).
“And” between values parts separate entries of the source, which are not always exact repeats. Equal values may be shown once. Inconclusive results and toxic doses are left out. Cut-off read from the data, not from the text of the source: active = T/C of 150% or more; inactive = T/C below 125%.

Test system: L1210 leukemia ip in BDF1 mice, survival T/C
Experiment: NCI In Vivo Anticancer Drug Screen. Data for tumor model L1210 Leukemia (intraperitoneal) in B6D2F1 (BDF1) mice
Conditions: endpoint: mean survival time, higher = longer survival
How it was run: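 Transplantable tumor model; survival measured in treated vs vehicle control mice. Value = treated/control.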

[1] = dose: 100.0 mg/kg/injection, schedule: Q01DX009 (ip), vehicle: Klucel (hydroxypropylcellulose) (HPC)
[2] = dose: 200.0 mg/kg/injection, schedule: Q01DX009 (ip), vehicle: Klucel (hydroxypropylcellulose) (HPC)
[3] = dose: 400.0 mg/kg/injection, schedule: Q01DX009 (ip), vehicle: Klucel (hydroxypropylcellulose) (HPC)
[4] = dose: 100.0 mg/kg/injection, schedule: Q01DX001 (ip), vehicle: carboxymethylcellulose (CMC)
[5] = dose: 200.0 mg/kg/injection, schedule: Q01DX001 (ip), vehicle: carboxymethylcellulose (CMC)
[6] = dose: 400.0 mg/kg/injection, schedule: Q01DX001 (ip), vehicle: carboxymethylcellulose (CMC)
[7] = dose: 100.0 mg/kg/injection, schedule: Q01DX009 (ip), vehicle: saline with Tween-80
[8] = dose: 200.0 mg/kg/injection, schedule: Q01DX009 (ip), vehicle: saline with Tween-80

Measured: T/C

O=[N+]([O-])c1ccc(Oc2ccc(S(=O)(=O)c3ccc(Oc4ccc([N+](=O)[O-])cc4)c([N+](=O)[O-])c3)cc2[N+](=O)[O-])cc1
inactive: dose: 100.0 mg/kg/injection, schedule: Q01DX005 (ip), vehicle: Klucel (hydroxypropylcellulose) (HPC) 101 % of control | [1] 102 % of control | dose: 100.0 mg/kg/injection, schedule: Q04DX002 (ip), vehicle: Klucel (hydroxypropylcellulose) (HPC) 110 % of control | dose: 200.0 mg/kg/injection, schedule: Q01DX005 (ip), vehicle: Klucel (hydroxypropylcellulose) (HPC) 97 % of control | [2] 102 % of control | dose: 200.0 mg/kg/injection, schedule: Q04DX002 (ip), vehicle: Klucel (hydroxypropylcellulose) (HPC) 96 % of control | dose: 400.0 mg/kg/injection, schedule: Q01DX005 (ip), vehicle: Klucel (hydroxypropylcellulose) (HPC) 90 % of control | [3] 98 % of control | dose: 400.0 mg/kg/injection, schedule: Q04DX002 (ip), vehicle: Klucel (hydroxypropylcellulose) (HPC) 100 % of control

CCCCN(CCCC)C(C)=O
inactive: dose: 50.0 mg/kg/injection, schedule: Q01DX001 (ip), vehicle: saline 94 % of control | dose: 50.0 mg/kg/injection, schedule: Q04DX002 (ip), vehicle: saline with Tween-80 109 % of control | dose: 100.0 mg/kg/injection, schedule: Q01DX001 (ip), vehicle: saline 100 % of control | dose: 100.0 mg/kg/injection, schedule: Q04DX002 (ip), vehicle: saline with Tween-80 95 % of control | dose: 200.0 mg/kg/injection, schedule: Q01DX001 (ip), vehicle: saline 100 % of control | dose: 200.0 mg/kg/injection, schedule: Q04DX002 (ip), vehicle: saline with Tween-80 98 % of control

CCCCCCOP(=O)(N1CC1C)N1CC1C (centres undefined)
inactive: dose: 12.0 mg/kg/injection, schedule: Q01DX Z (ip), vehicle: saline 102 % of control | dose: 25.0 mg/kg/injection, schedule: Q01DX Z (ip), vehicle: saline 103 % of control | dose: 50.0 mg/kg/injection, schedule: Q01DX Z (ip), vehicle: saline 102 % of control and 111 % of control | dose: 100.0 mg/kg/injection, schedule: Q01DX Z (ip), vehicle: saline 109 % of control | dose: 200.0 mg/kg/injection, schedule: Q01DX Z (ip), vehicle: saline 107 % of control | dose: 400.0 mg/kg/injection, schedule: Q01DX Z (ip), vehicle: saline 106 % of control

COc1ccc2c(c1OC)C1C3CC=CC3C2C2=[N+]1CCc1cc3c(cc12)OCO3 (centres undefined)
inactive: dose: 1.56 mg/kg/injection, schedule: Q01DX009 (ip), vehicle: saline 102 % of control | dose: 3.12 mg/kg/injection, schedule: Q01DX009 (ip), vehicle: saline 93 % of control | dose: 6.25 mg/kg/injection, schedule: Q01DX009 (ip), vehicle: saline 98 % of control | dose: 12.5 mg/kg/injection, schedule: Q01DX009 (ip), vehicle: saline 113 % of control

CC1(C)N=C(N)N=C(N)N1c1ccccc1
inactive: dose: 12.0 mg/kg/injection, schedule: Q01DX009 (ip), vehicle: saline 104 % of control | dose: 12.0 mg/kg/injection, schedule: Q04DX003 (ip), vehicle: saline 97 % of control | dose: 25.0 mg/kg/injection, schedule: Q01DX009 (ip), vehicle: saline 99 % of control | dose: 25.0 mg/kg/injection, schedule: Q04DX003 (ip), vehicle: saline 101 % of control | dose: 50.0 mg/kg/injection, schedule: Q01DX009 (ip), vehicle: saline 98 % of control

O=NN(c1ccccc1)c1ccccc1
inactive: dose: 100.0 mg/kg/injection, schedule: Q01DX001 (ip), vehicle: Klucel (hydroxypropylcellulose) (HPC) 98 % of control | [1] 100 % of control | dose: 200.0 mg/kg/injection, schedule: Q01DX001 (ip), vehicle: Klucel (hydroxypropylcellulose) (HPC) 101 % of control | [2] 102 % of control | dose: 400.0 mg/kg/injection, schedule: Q01DX001 (ip), vehicle: Klucel (hydroxypropylcellulose) (HPC) 87 % of control | [3] 92 % of control

O=C(O)CN1C(=O)C2C3CCC(O3)C2C1=O (centres undefined)
inactive: dose: 100.0 mg/kg/injection, schedule: Q04DX003 (ip), vehicle: saline 107 % of control | dose: 200.0 mg/kg/injection, schedule: Q04DX003 (ip), vehicle: saline 98 % of control | dose: 400.0 mg/kg/injection, schedule: Q04DX003 (ip), vehicle: saline 98 % of control

CC(Nc1nc(SCc2ccccc2)c2ncn(C3OC(CO)C(O)C3O)c2n1)C(=O)O (centres undefined)
inactive: dose: 50.0 mg/kg/injection, schedule: Q01DX001 (ip), vehicle: carboxymethylcellulose (CMC) 107 % of control | [4] 109 % of control | [5] 104 % of control | [6] 104 % of control

Nc1ccc(OCCNS(=O)(=O)c2ccc(S(=O)(=O)F)cc2)c(Cl)c1
inactive: dose: 25.0 mg/kg/injection, schedule: Q04DX003 (ip), vehicle: Klucel (hydroxypropylcellulose) (HPC) 97 % of control | dose: 50.0 mg/kg/injection, schedule: Q01DX001 (ip), vehicle: saline with Tween-80 91 % of control | dose: 50.0 mg/kg/injection, schedule: Q04DX003 (ip), vehicle: Klucel (hydroxypropylcellulose) (HPC) 97 % of control | dose: 100.0 mg/kg/injection, schedule: Q01DX001 (ip), vehicle: saline with Tween-80 92 % of control | dose: 100.0 mg/kg/injection, schedule: Q04DX003 (ip), vehicle: Klucel (hydroxypropylcellulose) (HPC) 99 % of control and 105 % of control | dose: 200.0 mg/kg/injection, schedule: Q01DX001 (ip), vehicle: saline with Tween-80 100 % of control

O=C(c1ccccc1)C1C(c2ccccc2)N1C(=O)c1ccc([N+](=O)[O-])cc1 (centres undefined)
inactive: dose: 75.0 mg/kg/injection, schedule: Q01DX001 (ip), vehicle: saline with Tween-80 96 % of control | dose: 150.0 mg/kg/injection, schedule: Q01DX001 (ip), vehicle: saline with Tween-80 86 % of control | dose: 300.0 mg/kg/injection, schedule: Q01DX001 (ip), vehicle: saline with Tween-80 91 % of control

COc1cc(/C=N/NC(=O)c2ccccc2)cc(OC)c1OC
inactive: [7] 97 % of control | dose: 100.0 mg/kg/injection, schedule: Q04DX003 (ip), vehicle: saline with Tween-80 90 % of control | [8] 92 % of control | dose: 200.0 mg/kg/injection, schedule: Q04DX003 (ip), vehicle: saline with Tween-80 91 % of control | dose: 400.0 mg/kg/injection, schedule: Q01DX009 (ip), vehicle: saline with Tween-80 97 % of control | dose: 400.0 mg/kg/injection, schedule: Q04DX003 (ip), vehicle: saline with Tween-80 90 % of control

CCc1cc(C)cc(CC)c1N
inactive: [1] 104 % of control | [2] 90 % of control

CCCCCCCC(=O)N1C(C)CCC1C (centres undefined)
inactive: dose: 100.0 mg/kg/injection, schedule: Q04DX002 (ip), vehicle: saline 94 % of control | dose: 200.0 mg/kg/injection, schedule: Q04DX002 (ip), vehicle: saline 94 % of control | dose: 400.0 mg/kg/injection, schedule: Q04DX002 (ip), vehicle: saline 98 % of control

CCOC(=O)Cc1c(C)[nH]c2c(C)ccc(C)c12
inactive: dose: 5.0 mg/kg/injection, schedule: Q01DX001 (ip), vehicle: other 94 % of control | dose: 10.0 mg/kg/injection, schedule: Q01DX001 (ip), vehicle: other 91 % of control | dose: 20.0 mg/kg/injection, schedule: Q01DX001 (ip), vehicle: other 105 % of control | dose: 40.0 mg/kg/injection, schedule: Q01DX001 (ip), vehicle: other 96 % of control | dose: 80.0 mg/kg/injection, schedule: Q01DX001 (ip), vehicle: other 100 % of control

CCCCCCCCCCCCCCCCS(=O)(=O)N/N=C/c1ccc([N+](=O)[O-])cc1
inactive: [4] 94 % of control | [5] 87 % of control | [6] 105 % of control

COc1cc2c(cc1OC)C(c1ccc(O)c(O)c1)CNC2 (centres undefined)
inactive: dose: 50.0 mg/kg/injection, schedule: Q01DX009 (ip), vehicle: saline with Tween-80 101 % of control | [7] 100 % of control | [8] 95 % of control
